We go through 1 compound from US20210059955A1, “SYSTEMS AND METHODS FOR DECRYSTALLIZATION OF URIC ACID” (RL Patents, LLC, priority 2019, published 2021).

The conditions of experiment [1]: test subject A, over the six-month experiment. The protocol: (§1) The method of the experiment includes test subject A submerging an affected joint into a warm bath containing water and sodium bicarbonate. The heat was used to facilitate opening of skin pores to facilitate absorption of the active ingredient or agent. […] Control subject B submerged their affected foot into a pure water bath without any other substance or compound at 38° C. for twice a day for durations of 60 minutes, and for a total of six months. […] A phlebotomist drew a vial of blood from each subject's arm, and the samples were processed by an analyzer, model AU480, by Beckman Coulter.
(§2) Both test subject A and control subject B were diagnosed of hyperuricemia based on personal and clinical assessments, such as, e.g., multiple previous acute gout attacks, presence of swelling and tophi at the affected joint, and measured uric acid serum levels above […]. Both test subject A and control subject B were not on any medication at the time of the experiment, and maintained a low-purine diet, such as, e.g., primarily fruits, vegetables, and bread.

Experiment [2] relates to uric acid serum levels. Particulars: test subject A; for Uric acid serum level: saturated sodium bicarbonate water bath 38° C., twice a day 60 minutes. The protocol: as §1, §2

Like-named read-outs stand apart in the source and are kept apart here.

As for `O=C([O-])O.[Na+]` [sodium bicarbonate], the “Tophi by visual inspection” value in experiment [1] is “no longer visible”. Further, the “Overall course of uric acid content” value in experiment [2] (over the six-month experiment) is on record as “general decline”. Besides, the “Uric acid serum level” value in experiment [2] (August 1 2018) is given as 6.79 mg/dL; in experiment [2] (August 15 2018) it was 6.47 mg/dL; in experiment [2] (December 1 2018) it was 5.41 mg/dL; in experiment [2] (December 15 2018) it was 5.20 mg/dL; in experiment [2] (July 1 2018) it was 6.62 mg/dL; in experiment [2] (July 15 2018), 6.58 mg/dL. Further, the “Uric acid serum level” value turned out to be 6.99 mg/dL in experiment [2] (June 1 2018); 7.15 mg/dL in experiment [2] (June 15 2018); 5.37 mg/dL in experiment [2] (November 1 2018); 5.34 mg/dL in experiment [2] (November 15 2018); 5.47 mg/dL in experiment [2] (October 1 2018); 5.40 mg/dL in experiment [2] (October 15 2018). Besides, the figures for the “Uric acid serum level” value in experiment [2] (September 1 2018) and in experiment [2] (September 15 2018) were 5.98 mg/dL and 5.59 mg/dL, respectively.
